In one series the test system is E. coli (K-12 MG1655). The settings on record: Table 3; K-12 MG1655; broth microdilution, 50:50 PBS/LB-broth, 200 µL, 20 h, 37 °C. The procedure: (§1) S. aureus (ATCC 29213, MSSA, ATCC, Manassas, VA), E. coli (K-12 MG1655) and clinical isolates of S. aureus, E. coli, E. faecium, K. pneumoniae, A. baumannii, P. aeruginosa and E. cloacae obtained from the Department of Laboratory Medicine at Örebro University Hospital were streaked on Luria–Bertani (LB) agar plates and incubated at 37 °C overnight. Single colonies were inoculated into 5 ml of LB broth and incubated on a shaker (400 rpm) at 37 °C overnight. The bacterial concentrations were determined by viable count and were adjusted to correlate with approximately 10^9 CFU/ml.
(§2) The broth microdilution method was used to determine minimal inhibitory concentration (MIC) and minimal bactericidal concentration (MBC), in accordance with the EUCAST standards for the broth microdilution method. Two-fold serial dilutions of the lipopeptides were used, and the final concentrations ranged from 0.19 to 100 µM. In brief, two-fold serial dilutions of the lipopeptides were performed in a 96-well plate in PBS, with a final volume of 100 µl per well, after which 100 µl of LB-broth media containing approximately 5 × 10^5 CFU/ml of bacteria was added to each well. The plate was then incubated for 20 h in 37 °C on a shaker (400 rpm). The effect of lipopeptide-antibiotic combinations was investigated by performing checkerboard assays. The assays were performed in accordance with the MIC and MBC tests conducted above, but with horizontal and longitudinal two-fold serial dilutions of the tested compounds. […] The fractional inhibitory concentration (FIC) and fractional bactericidal concentration (FBC) were calculated by the equation (MIC or MBC of peptide in combination/MIC or MBC of peptide alone) + (MIC or MBC of antibiotic in combination/MIC or MBC of antibiotic alone). Synergy was defined as FIC/FBC ≤ 0.5, additive when 0.5 < FIC/FBC ≤ 1, indifferent when 1 < FIC/FBC < 2 and antagonistic when FIC/FBC ≥ 2. All experiments were repeated at least three times.

Series [1] relates to S. aureus (ATCC 29213, MSSA). The settings on record: ATCC 29213, 20 h. The procedure:
as §1, §2

Series [2] in a line: Carboxyfluorescein release assay, bacterial liposome model. The series is classed as biochemical. The following applies: 75:25 POPC:POPG liposomes, 25 µM lipid, 10 mM PBS pH 7.4, 10^–5–10^2 µM peptide, 60 min, fluorescence, Hill fit, n = 3; read-out: EC50 Bacterial (concentration that triggers 50% CF release). How it is done: (§3) Liposomes were prepared by thin-film hydration method. Lipids stock solutions (10 mg/ml in chloroform, Avanti Polar Lipids, Inc., Alabaster, United States) of the lipids 1-palmitoyl-2-oleoyl-sn-glycero-3-phosphocholine (POPC), 1-palmitoyl-2-oleoyl-sn-glycero-3-phospho-L-serine (POPS), 1-Hexadecanoyl-2-(9Z-Octadecenoyl)-sn-Glycero-3-Phosphoglycerol (POPG) and Cholesterol (Chol) were employed. Bacterial liposomes were prepared with a 75:25 ratio of POPC:POPG and mammalian liposomes were prepared with a 65:5:30 ratio of POPC:POPS:Chol. Lipid solutions were thoroughly homogenised, and the solvent was evaporated with the use of a dry N2 steam to yield a lipid cake. […] The lipid film was subsequently hydrated with a 5(6)-CF solution (50 mM CF, 10 mM PBS, 90 mM NaCl, pH 7.4). Following a 10 min incubation on orbital shaker (50 min^−1), the solution was vortexed for 60 s on medium speed. A mini extruder (Avanti Polar Lipids, Inc., United States) was employed and 21 extrusions were performed through a 0.1 µm filter membrane (Nuclepore track-etched hydrophilic membrane, Cytiva, Whatman, MA, United States), resulting in monodispersed unilamellar liposomes. Directly before use the liposomes were purified from unencapsulated CF by filtration through a gel filtration column (PD Minitrap G-25 column, Cytiva, United States), against PBS buffer (10 mM, pH 7.4).
(§4) Peptide and lipopeptide activity towards liposome models were evaluated using a carboxyfluorescein (CF) release assay. Liposomes were diluted in PBS (10 mM, pH 7.4) to a final lipid concentration of 25 µM and incubated with peptides (10^–5–10^2 µM) in a 96-well plate (n = 3). CF release was monitored using an Infinite M1000 PRO plate reader every 2.5 min for 1 h. Full (100%) CF release was obtained by addition of 1% Triton X-100 solution followed by 10 min incubation. CF release percentage was evaluated according to the formula 100 * (F − F0)/(FT − F0), where F indicates the instantaneous fluorescence, FT the total fluorescence and F0 the background fluorescence prior to peptide addition. Data were fitted to a Hill-1 curve using MATLAB R2019a (The MathWorks Inc., Natick, Massachusetts, United States) and the half maximum effective concentration (EC50) was extracted.

A short description of series [3]: Carboxyfluorescein release assay, mammalian liposome model. Format: biochemical. The following applies: 65:5:30 POPC:POPS:Chol. liposomes, 25 µM lipid, 10 mM PBS pH 7.4, 10^–5–10^2 µM peptide, 60 min, fluorescence, Hill fit, n = 3; read-out: EC50 Mammalial (concentration that triggers 50% CF release). The procedure:
as §3, §4

Another series deals with human erythrocytes. Description: Hemolytic activity. The series is classed as cell-based. The settings on record: 15% suspension in PBS, 1 h, 37 °C, absorbance 540 nm, highest tested concentration 100 µM. The procedure: The hemolytic activity of the lipopeptides was investigated by collecting blood from healthy volunteers in heparinized vacutainers. Briefly, the blood was centrifuged at 600 × g for 5 min and the erythrocyte pellet was washed three times in PBS. The cells were then suspended in PBS and added to 96-well plates (15% erythrocyte suspension/well), containing the lipopeptides with two-fold serial dilution. The plates were incubated for 1 h at 37 °C followed by centrifugation for 5 min at 900×g and absorbance measurement of the supernatants at 540 nm. Hemolytic activity (%) was calculated by subtracting the negative control from all values and normalization against the positive control (0.5% Triton X-100), that was set to 100%. All experiments, each in duplicate, were repeated three times.

Another series concerns S. aureus (ATCC 29213). The series is classed as cell-based. The settings on record: Table 6; ATCC 29213; checkerboard assay, 50:50 PBS/LB-broth, 200 µL. How it is done:
as §2, with “Two-fold serial dilutions of the lipopeptides were used, and the final concentrations ranged from 0.19 to 100 µM.” left out, “Synergy was defined as FIC/FBC ≤ 0.5, additive when 0.5 < FIC/FBC ≤ 1, indifferent when 1 < FIC/FBC < 2 and antagonistic when FIC/FBC ≥ 2.” left out

Structures are written as SMILES. Non-standard residues stand in square brackets, D forms with d. Residues, ends and D or L forms follow the SMILES beside them. *: point of attachment. Heptanoyl = CCCCCCC(=O)*; Hexanoyl = CCCCCC(=O)*

Take `CCCCCC(=O)N[C@H](CC(C)C)C(=O)NCC(=O)N[C@H](CC(C)C)C(=O)N[C@H](CCCCN)C(=O)N[C@H](CC(C)C)C(=O)N[C@H](CC(C)C)C(=O)N[C@H](Cc1c[nH]c2ccccc12)C(=O)N[C@H](CO)C(=O)N[C@H](C)C(=O)N[C@H](Cc1ccc(O)cc1)C(=O)N[C@H](CCCCN)C(=O)N[C@H](Cc1c[nH]cn1)C(=O)N[C@H](CCCNC(=N)N)C(=O)N[C@H](CCCCN)C(=O)N[C@@H](C(=O)N[C@H](CC(C)C)C(N)=O)[C@H](C)O` [D-6-C6-Leu] (Hexanoyl-[dL]G[dL][dK][dL][dL][dW][dS][dA][dY][dK][dH][dR][dK][dT][dL]-NH2): in the series on E. coli (K-12 MG1655), the “E. coli MBC” value was 3.1 µM and the “E. coli MIC” value is on record as 3.1 µM. In series [1], the “S. aureus MBC” value was 1.5 µM and the “S. aureus MIC” value was 1.5 µM. Moreover, in series [2], the EC50 came to 130 nM. Further, the EC50 in series [3] was found to be 1220 nM. Further, in the series with human erythrocytes, the “HC, hemolytic concentration at 5% hemolytic activity” value (“HC … at 5% hemolytic activity” below) is 65 µM.
In the case of `CCCCCC(=O)N[C@H](CC(C)C)C(=O)NCC(=O)N[C@@H](C(=O)N[C@H](CCCCN)C(=O)N[C@@H](C(=O)N[C@H](CC(C)C)C(=O)N[C@H](Cc1c[nH]c2ccccc12)C(=O)N[C@H](CO)C(=O)N[C@H](C)C(=O)N[C@H](Cc1ccc(O)cc1)C(=O)N[C@H](CCCCN)C(=O)N[C@H](Cc1c[nH]cn1)C(=O)N[C@H](CCCNC(=N)N)C(=O)N[C@H](CCCCN)C(=O)N[C@@H](C(=O)N[C@@H](C(N)=O)[C@H](C)CC)[C@H](C)O)[C@H](C)CC)[C@H](C)CC` [D-6-C6] (Hexanoyl-[dL]G[dI][dK][dI][dL][dW][dS][dA][dY][dK][dH][dR][dK][dT][dI]-NH2), in the series with E. coli (K-12 MG1655), the “E. coli MBC” value was determined as 3.1 µM and the “E. coli MIC” value is 3.1 µM. Moreover, in series [1], the “S. aureus MBC” value came out at 3.1 µM and the “S. aureus MIC” value is 3.1 µM. Moreover, the EC50 in series [2] came out at 130 nM. For the same compound, the EC50 in series [3] was determined as 4990 nM. Besides, the “HC … at 5% hemolytic activity” value with human erythrocytes is greater than 100 µM.
As for `CCCCCCC(=O)N[C@H](CC(C)C)C(=O)NCC(=O)N[C@H](CC(C)C)C(=O)N[C@H](CCCCN)C(=O)N[C@H](CC(C)C)C(=O)N[C@H](CC(C)C)C(=O)N[C@H](Cc1c[nH]c2ccccc12)C(=O)N[C@H](CO)C(=O)N[C@H](C)C(=O)N[C@H](Cc1ccc(O)cc1)C(=O)N[C@H](CCCCN)C(=O)N[C@H](Cc1c[nH]cn1)C(=O)N[C@H](CCCNC(=N)N)C(=O)N[C@H](CCCCN)C(=O)N[C@@H](C(=O)N[C@H](CC(C)C)C(N)=O)[C@H](C)O` [D-6-C7-Leu] (Heptanoyl-[dL]G[dL][dK][dL][dL][dW][dS][dA][dY][dK][dH][dR][dK][dT][dL]-NH2), in the series on E. coli (K-12 MG1655), the “E. coli MBC” value is reported as 3.1 µM and the “E. coli MIC” value amounted to 3.1 µM. Moreover, in series [1], the “S. aureus MBC” value turned out to be 1.5 µM and the “S. aureus MIC” value was 1.5 µM. For the same compound, the EC50 in series [2] is 130 nM. Further, the EC50 in series [3] is 1020 nM. Besides, the “HC … at 5% hemolytic activity” value in the series on human erythrocytes stood at 35 µM.
Regarding `CCCCCCC(=O)N[C@H](CC(C)C)C(=O)NCC(=O)N[C@@H](C(=O)N[C@H](CCCCN)C(=O)N[C@@H](C(=O)N[C@H](CC(C)C)C(=O)N[C@H](Cc1c[nH]c2ccccc12)C(=O)N[C@H](CO)C(=O)N[C@H](C)C(=O)N[C@H](Cc1ccc(O)cc1)C(=O)N[C@H](CCCCN)C(=O)N[C@H](Cc1c[nH]cn1)C(=O)N[C@H](CCCNC(=N)N)C(=O)N[C@H](CCCCN)C(=O)N[C@@H](C(=O)N[C@@H](C(N)=O)[C@H](C)CC)[C@H](C)O)[C@H](C)CC)[C@H](C)CC` [D-6-C7] (Heptanoyl-[dL]G[dI][dK][dI][dL][dW][dS][dA][dY][dK][dH][dR][dK][dT][dI]-NH2), in the series with E. coli (K-12 MG1655), the “E. coli MBC” value is listed as 6.2 µM and the “E. coli MIC” value turned out to be 3.1 µM. In series [1], the “S. aureus MBC” value amounted to 3.1 µM and the “S. aureus MIC” value amounted to 1.5 µM. Further, in series [2], the EC50 is 290 nM. Besides, the EC50 in series [3] was 1470 nM. In the series on human erythrocytes, the “HC … at 5% hemolytic activity” value was 65 µM.
With `CN(C)[C@@H]1C(O)=C(C(N)=O)C(=O)[C@@]2(O)C(O)=C3C(=O)c4c(O)cccc4[C@@](C)(O)[C@H]3C[C@@H]12` [Tetracycline], in the series on S. aureus (ATCC 29213), the “S. aureus MBC, antibiotic alone” value stood at 8 µg/mL and the “S. aureus MIC, antibiotic alone” value is 0.5 µg/mL.
For the compound `CN[C@H](CC(C)C)C(=O)N[C@H]1C(=O)N[C@@H](CC(N)=O)C(=O)N[C@H]2C(=O)N[C@H]3C(=O)N[C@H](C(=O)N[C@H](C(=O)O)c4cc(O)cc(O)c4-c4cc3ccc4O)[C@H](O)c3ccc(c(Cl)c3)Oc3cc2cc(c3O[C@@H]2O[C@H](CO)[C@@H](O)[C@H](O)[C@H]2O[C@H]2C[C@](C)(N)[C@H](O)[C@H](C)O2)Oc2ccc(cc2Cl)[C@H]1O` [Vancomycin], in the series on S. aureus (ATCC 29213), the “S. aureus MBC, antibiotic alone” value is 0.78 µg/mL and the “S. aureus MIC, antibiotic alone” value is 0.78 µg/mL.

For the origin of these results see article PMC10011573, “Development of novel broad-spectrum antimicrobial lipopeptides derived from plantaricin NC8 β” (Scientific Reports, 2023).
